According to ChEMBL document CHEMBL3739261, “Synthesis and antibacterial activity evaluation of C-5 side chain modified analogues of FYL-66, a potential agent against methicillin-resistant Staphylococcus aureus” (Medchemcomm, 2015):
≈ marks a conversion by molar mass, not a printed value.

Legend:
[1] = tested on: Staphylococcus aureus; experiment: Antibacterial activity against methicillin-susceptible Staphylococcus aureus ATCC 25923 incubated for 18 hrs by broth microdilution method; assay type: functional; details: ATCC 25923, 18 h
[2] = tested on: Staphylococcus aureus; experiment: Antibacterial activity against methicillin-susceptible Staphylococcus aureus CMCC 2603 incubated for 18 hrs by broth microdilution method; assay type: functional; details: CMCC 2603, 18 h
[3] = tested on: Staphylococcus aureus; experiment: Antibacterial activity against methicillin-susceptible Staphylococcus aureus ATCC 29213 incubated for 18 hrs by broth microdilution method; assay type: functional; details: ATCC 29213, 18 h
[4] = tested on: Staphylococcus aureus; experiment: Antibacterial activity against methicillin-susceptible Staphylococcus aureus ATCC 6538 incubated for 18 hrs by broth microdilution method; assay type: functional; details: ATCC 6538, 18 h
[5] = tested on: Staphylococcus aureus; experiment: Antibacterial activity against methicillin-resistant Staphylococcus aureus ATCC 33591 incubated for 18 hrs by broth microdilution method; assay type: functional; details: ATCC 33591, 18 h
[6] = tested on: Staphylococcus aureus; experiment: Antibacterial activity against methicillin-resistant Staphylococcus aureus ATCC 43300 incubated for 18 hrs by broth microdilution method; assay type: functional; details: ATCC 43300, 18 h
[7] = tested on: Escherichia coli; experiment: Antibacterial activity against Escherichia coli ATCC 25922 incubated for 18 hrs by broth microdilution method; assay type: functional; details: ATCC 25922, 18 h
[8] = tested on: Pseudomonas aeruginosa; experiment: Antibacterial activity against Pseudomonas aeruginosa ATCC 27853 incubated for 18 hrs by broth microdilution method; assay type: functional; details: ATCC 27853, 18 h
[9] = Cytotoxicity against HEK293A cells after 48 hrs by MTT assay; assay type: cell-based; details: Homo sapiens, HEK293-A
[10] = Cytotoxicity against human L02 cells after 48 hrs by MTT assay; assay type: cell-based; details: L02, 48 h
[11] = Solubility of compound in distilled water after 24 hrs by HPLC analysis; assay type: physicochemical
[12] = Octanol/water partition coefficient, log P of the compound by HPLC assay; assay type: physicochemical

| Structure (SMILES) | MIC [1] [µg/mL] | MIC [2] [µg/mL] | MIC [3] [µg/mL] | MIC [4] [µg/mL] | MIC [5] [µg/mL] | MIC [6] [µg/mL] | MIC [7] [µg/mL] | MIC [8] [µg/mL] | IC50 [9] [µg/mL] | IC50 [10] [µg/mL] | solubility at 24 h [11] [µM] | logP [12] |
| --- | --- | --- | --- | --- | --- | --- | --- | --- | --- | --- | --- | --- |
| CN(CCO)C[C@H]1CN(c2ccc(-n3cc(-c4ccccn4)cn3)c(F)c2)C(=O)O1 | > 32 | > 32 | > 32 | > 32 | > 32 | > 32 | > 32 | > 32 | 367 (≈ 892 µM) | 134 (≈ 326 µM) | 669 (≈ 275 µg/mL) | 1.44 |
| O=C(CF)NC[C@H]1CN(c2ccc(-n3cc(-c4ccccn4)cn3)c(F)c2)C(=O)O1 | 4 (≈ 9.68 µM) | 4 (≈ 9.68 µM) | 4 (≈ 9.68 µM) | 4 (≈ 9.68 µM) | 4 (≈ 9.68 µM) | 4 (≈ 9.68 µM) | > 32 | > 32 | > 400 | 106 (≈ 256 µM) | 61.8 (≈ 25.5 µg/mL) | 1.29 |
| CCN1CCN(C[C@H]2CN(c3ccc(-n4cc(-c5ccccn5)cn4)c(F)c3)C(=O)O2)CC1 | > 32 | > 32 | > 32 | > 32 | > 32 | > 32 | > 32 | > 32 | 99 (≈ 220 µM) | 99 (≈ 220 µM) | 706 (≈ 318 µg/mL) | 2.19 |
| O=C1O[C@@H](CNC(=O)C(F)(F)F)CN1c1ccc(-n2cc(-c3ccccn3)cn2)c(F)c1 | > 64 | > 64 | > 64 | > 64 | > 64 | > 64 | > 32 | > 32 | > 400 | > 400 | 114 (≈ 51 µg/mL) | ≥ 1.78 |
| COC(=O)CC1CCN(C[C@H]2CN(c3ccc(-n4cc(-c5ccccn5)cn4)c(F)c3)C(=O)O2)CC1 | > 32 | > 32 | > 32 | > 32 | > 32 | > 32 | > 32 | > 32 | 224 (≈ 454 µM) | > 400 | 92.1 (≈ 45.5 µg/mL) | 1.78 |
| O=CNC[C@H]1CN(c2ccc(-n3cc(-c4ccccn4)cn3)c(F)c2)C(=O)O1 | 8 (≈ 21 µM) | 8 (≈ 21 µM) | 8 (≈ 21 µM) | 8 (≈ 21 µM) | 8 (≈ 21 µM) | 8 (≈ 21 µM) | > 32 | > 32 | > 400 | > 400 | 217 (≈ 82.8 µg/mL) | 1.19 |
| O=C1CCC(=O)N1C[C@H]1CN(c2ccc(-n3cc(-c4ccccn4)cn3)c(F)c2)C(=O)O1 | > 32 | > 32 | > 32 | > 32 | > 32 | > 32 | > 32 | > 32 | > 400 | > 400 | 45.3 (≈ 19.7 µg/mL) | 1.58 |
| COC[C@H]1CN(c2ccc(-n3cc(-c4ccccn4)cn3)c(F)c2)C(=O)O1 | > 32 | > 32 | > 32 | > 32 | > 32 | > 32 | > 32 | > 32 | > 400 | > 400 | 36.2 (≈ 13.3 µg/mL) | 2.18 |
| O=C1O[C@@H](CN2CCC(O)CC2)CN1c1ccc(-n2cc(-c3ccccn3)cn2)c(F)c1 | > 32 | > 32 | > 32 | > 32 | > 32 | > 32 | > 32 | > 32 | > 400 | > 400 | 45.9 (≈ 20.1 µg/mL) | 1.63 |
| CNC(=O)[C@H]1CN(c2ccc(-n3cc(-c4ccccn4)cn3)c(F)c2)C(=O)O1 | 8 (≈ 21 µM) | 8 (≈ 21 µM) | 8 (≈ 21 µM) | 8 (≈ 21 µM) | 16 (≈ 42 µM) | 16 (≈ 42 µM) | > 32 | > 32 | 342 (≈ 897 µM) | 217 (≈ 569 µM) | 26.2 (≈ 9.99 µg/mL) | 1.39 |
| O=C1CSC(=O)N1C[C@H]1CN(c2ccc(-n3cc(-c4ccccn4)cn3)c(F)c2)C(=O)O1 | > 32 | > 32 | > 32 | > 32 | > 32 | > 32 | > 32 | > 32 | 283 (≈ 624 µM) | > 400 | 26.9 (≈ 12.2 µg/mL) | 2.18 |
| O=C1OC(Cn2ccnc2)CN1c1ccc(-n2cc(-c3ccccn3)cn2)c(F)c1 (single isomer, unassigned) | > 32 | > 32 | > 32 | > 32 | > 32 | > 32 | > 32 | > 32 | > 400 | 350 (≈ 865 µM) | 12.3 (≈ 4.97 µg/mL) | 1.73 |
